According to the supplement of paper PMC10627819:

Legend:
B. subtilis 168 [1] = experiment: fitness (endpoint OD595 vs no drug) (fraction); higher = more growth
How it was run: (§1)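 Fitness expresses the optical density reached at the stationary-phase transition as a fraction of the robust mean of no-drug control wells. It is capped at 1. Measurements were OD595 every 30 min for 14 h at 37 °C after inoculation of 384-well plates at OD595 0.01 (30 µl, or 55 µl for S. pneumoniae), minus the first reading.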

S. pneumoniae D39V [2] = experiment: as above
How it was run: as §1

B. subtilis 168 [3] = experiment: Bliss interaction score (quartile over a dose matrix) (fitness difference); higher = more antagonism (negative = synergy)
How it was run: (§2)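 Fitness was defined as normalised growth: OD595 at the start of stationary phase divided by the plate's robust no-drug mean and capped at 1. Single-drug fitness was inferred from combination measurements. The Bliss score is observed fitness minus the product of the single-drug values, summarised by quartiles across technical, biological and donor/recipient replicates.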

S. aureus Newman = experiment: as above
How it was run: as §2

S. aureus DSM 20231 = experiment: as above
How it was run: as §2

S. pneumoniae D39V [4] = experiment: as above
How it was run: as §2
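For Bliss interaction score (quartile over a dose matrix) in this document: first quartile when negative (synergy) and third quartile when positive (antagonism).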
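For fitness (endpoint OD595 vs no drug) in this document: OD595 on entry to stationary phase over no-drug wells; at most 1.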

CCCCCCCCCC(=O)N[C@@H](Cc1c[nH]c2ccccc12)C(=O)N[C@H](CC(N)=O)C(=O)N[C@@H](CC(=O)O)C(=O)N[C@@H]1C(=O)NCC(=O)N[C@@H](CCCN)C(=O)N[C@@H](CC(=O)O)C(=O)N[C@H](C)C(=O)N[C@@H](CC(=O)O)C(=O)NCC(=O)N[C@H](CO)C(=O)N[C@@H]([C@H](C)CC(=O)O)C(=O)N[C@@H](CC(=O)c2ccccc2N)C(=O)O[C@@H]1C [Daptomycin] + CCC(C)C1C(=O)NC(=C)C(=O)NC(C(=O)NC(CSCC(C(=O)N1)NC(=O)/C(=C/C)/NC(=O)C(C(C)CC)N)C(=O)NC2C(SCC(NC(=O)CNC(=O)C3CCCN3C2=O)C(=O)NC(CCCCN)C(=O)NC4C(SCC(NC(=O)CNC(=O)C(NC(=O)C(NC(=O)C(NC(=O)CNC4=O)C)CC(C)C)CCSC)C(=O)NC(CC(=O)N)C(=O)NC(CCSC)C(=O)NC(CCCCN)C(=O)NC5C(SCC6C(=O)NC(C(=O)NC(CSC(C(C(=O)N6)NC(=O)C(NC5=O)C)C)C(=O)NC(CO)C(=O)NC(C(C)CC)C(=O)NC(CC7=CN=CN7)C(=O)NC(C(C)C)C(=O)NC(=C)C(=O)NC(CCCCN)C(=O)O)CC8=CN=CN8)C)C)C)CC(C)C [Nisin]
fitness, B. subtilis 168 [1], one replicate, main component drawn
Details	first compound 0.125 µg/mL	first compound 0.25 µg/mL	first compound 0.5 µg/mL	first compound 1 µg/mL
partner 0.5 µg/mL	0.829	–	–	0.726
partner 1 µg/mL	0.873	–	–	0.676
partner 1.25 µg/mL	0.963	0.933	≥ 1	–
partner 1.6 µg/mL	0.788	0.654	0.797	–
partner 2 µg/mL	0.439	–	–	0.451
partner 2.5 µg/mL	0.234	0.593	0.601	–
partner 3.2 µg/mL	0.0337	0.0148	0.0344	–
partner 4 µg/mL	0.212	0.0372	0.0568	–
partner 5 µg/mL	0.077	0.0364	0.0223	–
partner 6.4 µg/mL	0.0443	0.039	0.026	–
partner 8 µg/mL	0.0734	0.157	0.0959	–
partner 16 µg/mL	0.0313	0.1	0.0497	–

fitness, main component drawn
Details	partner 0.4275 µg/mL	partner 0.5 µg/mL	partner 0.855 µg/mL	partner 1 µg/mL	partner 1.6 µg/mL	partner 1.71 µg/mL	partner 2 µg/mL	partner 3.2 µg/mL	partner 6.4 µg/mL
B. subtilis 168 [1], first compound 0.25 µg/mL	–	0.863	–	0.788	–	–	0.58	–	–
B. subtilis 168 [1], first compound 0.5 µg/mL	–	0.828	–	0.794	–	–	0.595	–	–
S. pneumoniae D39V [2], first compound 1 µg/mL	0.995	–	0.874	–	0.022	0.0748	–	0.0226	0.0257
S. pneumoniae D39V [2], first compound 2 µg/mL	0.98	–	0.905	–	0.0316	0.077	–	0.0221	0.013
S. pneumoniae D39V [2], first compound 4 µg/mL	0.95	–	0.796	–	0.0215	0.0872	–	0.0303	0.0068

main component drawn
Details	Bliss interaction score
B. subtilis 168 [3]	0.0676
S. aureus DSM 20231	0.209
S. aureus Newman	0.0445
S. pneumoniae D39V [4]	-0.0492

CCCCCCCCCC(=O)N[C@@H](Cc1c[nH]c2ccccc12)C(=O)N[C@H](CC(N)=O)C(=O)N[C@@H](CC(=O)O)C(=O)N[C@@H]1C(=O)NCC(=O)N[C@@H](CCCN)C(=O)N[C@@H](CC(=O)O)C(=O)N[C@H](C)C(=O)N[C@@H](CC(=O)O)C(=O)NCC(=O)N[C@H](CO)C(=O)N[C@@H]([C@H](C)CC(=O)O)C(=O)N[C@@H](CC(=O)c2ccccc2N)C(=O)O[C@@H]1C [Daptomycin] + CN(C)C(=O)C(CCN1CCC(O)(c2ccc(Cl)cc2)CC1)(c1ccccc1)c1ccccc1 [Loperamide]
fitness
Details	partner 17.14 µg/mL	partner 20 µg/mL	partner 25 µg/mL	partner 34.28 µg/mL	partner 40 µg/mL	partner 80 µg/mL	partner 100 µg/mL
B. subtilis 168 [1], first compound 0.125 µg/mL	–	–	0.862	–	–	–	0.0281
B. subtilis 168 [1], first compound 0.25 µg/mL	–	–	0.802	–	–	–	0.0213
B. subtilis 168 [1], first compound 0.5 µg/mL	–	–	0.669	–	–	–	0.0107
S. pneumoniae D39V [2], first compound 1 µg/mL	0.888	≥ 1	–	0.877	≥ 1	0.225	–
S. pneumoniae D39V [2], first compound 2 µg/mL	0.951	≥ 1	–	0.919	≥ 1	0.153	–
S. pneumoniae D39V [2], first compound 4 µg/mL	0.917	≥ 1	–	0.918	≥ 1	0.196	–

fitness, one replicate
Details	first compound 1 µg/mL	first compound 2 µg/mL	first compound 4 µg/mL
B. subtilis 168 [1], partner 25 µg/mL	0.191	–	–
B. subtilis 168 [1], partner 50 µg/mL	0.0409	–	–
B. subtilis 168 [1], partner 100 µg/mL	0.0167	–	–
S. pneumoniae D39V [2], partner 68.57 µg/mL	0.856	0.858	0.887

Details	Bliss interaction score
B. subtilis 168 [3]	0.136
S. aureus DSM 20231	0.133
S. aureus Newman	0.0375
S. pneumoniae D39V [4]	0.075

CCCCCCCCCC(=O)N[C@@H](Cc1c[nH]c2ccccc12)C(=O)N[C@H](CC(N)=O)C(=O)N[C@@H](CC(=O)O)C(=O)N[C@@H]1C(=O)NCC(=O)N[C@@H](CCCN)C(=O)N[C@@H](CC(=O)O)C(=O)N[C@H](C)C(=O)N[C@@H](CC(=O)O)C(=O)NCC(=O)N[C@H](CO)C(=O)N[C@@H]([C@H](C)CC(=O)O)C(=O)N[C@@H](CC(=O)c2ccccc2N)C(=O)O[C@@H]1C [Daptomycin] + CO[C@@H]1[C@@H](OC(N)=O)[C@@H](O)[C@H](Oc2ccc3c(O)c(NC(=O)c4ccc(O)c(CC=C(C)C)c4)c(=O)oc3c2C)OC1(C)C [Novobiocin]
fitness, B. subtilis 168 [1]
Details	first compound 0.125 µg/mL	first compound 0.25 µg/mL	first compound 0.5 µg/mL
partner 0.0125 µg/mL	0.94	0.981	0.899
partner 0.025 µg/mL	0.916	0.94	0.867
partner 0.05 µg/mL	0.968	0.984	0.902

fitness, B. subtilis 168 [1], one replicate
Details	partner 0.05 µg/mL	partner 0.1 µg/mL	partner 0.125 µg/mL	partner 0.2 µg/mL	partner 0.25 µg/mL	partner 0.5 µg/mL
first compound 0.125 µg/mL	–	–	0.958	–	0.954	0.649
first compound 0.25 µg/mL	–	0.96	≥ 1	0.957	≥ 1	0.579
first compound 0.5 µg/mL	–	0.94	≥ 1	0.936	0.965	0.288
first compound 1 µg/mL	0.738	0.791	–	0.759	–	–

Details	Bliss interaction score
B. subtilis 168 [3]	0.0788
S. aureus DSM 20231	0.0439
S. aureus Newman	0.0984
S. pneumoniae D39V [4]	0.0661
